This passage reports Kd results from PMC8177097 (FEBS letters, 2020).

Test [1] concerns the target T1, lipocalin Blc (wtBlc) (Escherichia coli, UniProt P0A901).
T1 sequence (P0A901 19-177): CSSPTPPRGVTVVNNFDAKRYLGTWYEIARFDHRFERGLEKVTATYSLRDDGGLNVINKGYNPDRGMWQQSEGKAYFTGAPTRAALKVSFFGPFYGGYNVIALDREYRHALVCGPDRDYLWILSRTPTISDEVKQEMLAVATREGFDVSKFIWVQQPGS
Nature of the test: tryptophan fluorescence quenching titration. In kind it is binding.

The target of test [2] is T1, lipocalin Blc (wtBlc). Nature of the test: spectrophotometric hemin titration. In kind it is binding.

`CC1=C(CCC(=O)O)c2cc3[nH]c(cc4nc(cc5[nH]c(cc1n2)c(C)c5C(C)O)C(C)=C4C(C)O)c(C)c3CCC(=O)O` (centres unmarked) [HP, hematoporphyrin]: binding in test [1] was characterised by a dissociation constant (Kd) of 0.00014 ± 0.0001 µM.
Consider `C=CC1=C(C)C2=Cc3c(C=C)c(C)c4[n]3[Fe][n]3c(c(C)c(CCC(=O)O)c3=CC3=NC(=C4)C(C)=C3CCC(=O)O)=CC1=N2` [heme], for which, in test [2], binding was put at a Kd of 1.4 ± 0.3 µM.
